Laboratory results: patent publication US9695396B2, “Regenerated tissue comprising a stratified structure of epithelial cells” (JAPAN SCIENCE AND TECHNOLOGY CORPORATION, priority 2001, dated 2017)

Assays:
[1] = system: regenerated normal bronchial epithelial tissue (NHBE); assay: cancer therapy sensitivity test by MTT assay, regenerated normal tissue, lung-derived fibroblasts (NHLF) as feeder layer; format: cell-based, human; conditions: 10 μg/ml for 72 hours
Method: (§1) The cancer therapy sensitivity test was conducted in comparison with a conventional two-dimensional culture MTT assay system.
(§2) In these figures, a column of the cancer name (e.g: AOI) corresponds to the sensitivity of the cancer cells in the two-dimensional culture.
(§3) Also in these figures, the brackets the MTT assay correspond, from the left, the normal epithelial cell name employed (this time a bronchial epithelium (NHBE) or prostatic epithelium (PrEC)), the culture medium (1/10-fold or 1-fold), the fibroblast name employed as a feeder layer (human skin-derived (SUSA) or lung-derived (NHLF)). […] The drug treatments with all of three drugs employed here were conducted at 10 μg/ml for 72 hours.

[2] = system: regenerated normal bronchial epithelial tissue (NHBE); assay: cancer therapy sensitivity test by MTT assay, regenerated normal tissue, SuSa feeder layer (Embodiment 3); conditions: 10 μg/ml for 72 hours
Method: as §1, §2, §3

AOI cancer tissue = assay: cancer therapy sensitivity test by MTT assay, AOI on NHBE, lung-derived fibroblasts (NHLF) as feeder layer; format: cell-based, human; conditions: 10 μg/ml for 72 hours
[3] = system: prostatic cancer-derived DU-145 cancer cells; assay: cancer therapy sensitivity test by MTT assay, DU-145 on PrEC in stratified structure, SuSa feeder layer (Embodiment 3); format: cell-based, human; conditions: 1/10-fold culture medium, 10 μg/ml for 72 hours
AOI lung cancer cells = assay: cancer therapy sensitivity test by MTT assay, AOI on NHBE in stratified structure, SuSa feeder layer (Embodiment 3); format: cell-based, human; conditions: 10 μg/ml for 72 hours
Method: as §1, §2, §3

AOI tumor = AOI tumor transplanted to a nude mouse; format: in vivo
ACHN-L4 cells = assay: cancer therapy sensitivity test by MTT assay on regenerated tissue (Embodiment 2), renal cancer; format: cell-based, human; conditions: novel sensitivity test, ACHN-L4 on RPTEC/NHMC regenerated tissue
hepatoma cells Alex = assay: cancer therapy sensitivity test by MTT assay on regenerated tissue (Embodiment 2), hepatoma; format: cell-based, human; conditions: combination of irradiation with cisplatin; Alex on Nheps regenerated tissue
[4] = 1-fold culture medium, lung-derived fibroblast feeder
[5] = 1/10-fold culture medium, lung-derived fibroblasts as feeder

| sensitivity of the normal tissue in 3-dimensional culture [1, 4] | sensitivity of tissue in MTT assay [1, 5] | growth of the regenerated normal bronchial epithelial tissue after removing co-cultured AOI cancer tissue ([2]; 1/10-fold culture medium) | Structure (SMILES) | proliferation of regenerated normal tissue ([2]; 1-fold culture medium, 5FU alone) | sensitivity of the AOI cancer cell tissue in 3-dimensional culture (AOI cancer tissue; [4]) | sensitivity of tissue in MTT assay (AOI cancer tissue; [5]) | sensitivity of DU-145 cancer cells compared with the AOI cells [3] | resistance of 3-dimensional AOI cancer tissue coexisting with the normal tissue compared with 2-dimensionally cultured AOI cells (AOI lung cancer cells; 1/10-level medium, drug alone) | sensitivity of AOI tumor to mitomycin compared with cisplatin (AOI tumor; nude mouse-transplanted tumor) | resistance of 3-dimensionally growing normal tissue ([2]; 1-fold level culture medium, drug alone) | resistance of 3-dimensional normal tissue coexisting with the cancer tissue compared with the normal tissue alone ([2]; 1/10-level medium, drug alone) | difference in sensitivity between the skin-derived and lung-derived fibroblasts (AOI cancer tissue; 1/10-fold culture medium) | tendency of 3-dimensional tissue to be more resistant than two-dimensional culture (AOI lung cancer cells; degree influenced by growth factor level in medium) | sensitivity of cancer cells in the MTT assay (ACHN-L4 cells) | MTT assay result compared with the HDRA method (hepatoma cells Alex) | body weight of the nude mouse reduced to (fraction) (AOI tumor; cisplatin at 10 mg/kg) | tumor growth (AOI tumor; cisplatin at 10 mg/kg, nude mouse) | difference in the sensitivity of the AOI cancer tissue by the difference in the fibroblasts (AOI cancer tissue; 1-fold culture medium, lung-derived vs skin-derived fibroblast feeder) |
| --- | --- | --- | --- | --- | --- | --- | --- | --- | --- | --- | --- | --- | --- | --- | --- | --- | --- | --- |
| reduced sensitivity | no tissue exhibited any sensitivity | tendency of the promotion of the growth | O=c1[nH]cc(F)c(=O)[nH]1 [5FU] | proliferation was rather promoted | reduced sensitivity | no tissue exhibited any sensitivity | highly sensitive |  |  |  |  |  |  |  |  |  |  |  |
|  |  |  | CO[C@@]12[C@H](COC(N)=O)C3=C(C(=O)C(C)=C(N)C3=O)N1C[C@@H]1N[C@@H]12 [MMC, mitomycin] |  |  |  |  | more resistant | rather more sensitive | rather more resistant | rather more resistant | no substantial difference |  |  |  |  |  |  |
|  |  |  | N.N.[Cl][Pt][Cl] [cisplatin] |  |  |  | rather resistant |  |  |  |  |  | tendency described above was observed also | highly sensitive | exhibited the difference in the effect | about ⅔ | retarded growth was observed only for several days | small |
